Data on 23 compounds can be found in PubChem BioAssay AID328 (DTP/NCI, 2004).

The experiment deals with BDF1 mice, P388 leukemia ip, median survival T/C. Description: NCI In Vivo Anticancer Drug Screen. Data for tumor model P388 Leukemia (intraperitoneal) in B6D2F1 (BDF1) mice. As to conditions: endpoint: median survival time, higher = longer survival. An outline of the steps:
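Reported as T/C, where T is the survival measurement in dosed animals and C the same measurement in vehicle controls.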

Where [1] appears, read: dose: 50.0 mg/kg/injection, schedule: Q01DX009 (ip), vehicle: saline with Tween-80.
Setting [2] is: dose: 100.0 mg/kg/injection, schedule: Q01DX009 (ip), vehicle: saline with Tween-80.
Setting [3] is: dose: 100.0 mg/kg/injection, schedule: Q04DX003 (ip), vehicle: saline with Tween-80.
Setting [4] is: dose: 200.0 mg/kg/injection, schedule: Q01DX009 (ip), vehicle: saline with Tween-80.
Where [5] appears, read: dose: 200.0 mg/kg/injection, schedule: Q04DX003 (ip), vehicle: saline with Tween-80.
[6] abbreviates: dose: 400.0 mg/kg/injection, schedule: Q01DX009 (ip), vehicle: saline with Tween-80.
Setting [7] is: dose: 400.0 mg/kg/injection, schedule: Q04DX003 (ip), vehicle: saline with Tween-80.
Where [8] appears, read: dose: 50.0 mg/kg/injection, schedule: Q01DX005 (ip), vehicle: saline with Tween-80.
Where [9] appears, read: dose: 100.0 mg/kg/injection, schedule: Q01DX005 (ip), vehicle: saline with Tween-80.
The mark [10] stands for this setting: dose: 100.0 mg/kg/injection, schedule: Q01DX009 (ip), vehicle: Klucel (hydroxypropylcellulose) (HPC).
Setting [11] is: dose: 400.0 mg/kg/injection, schedule: Q01DX009 (ip), vehicle: Klucel (hydroxypropylcellulose) (HPC).

SMILES strings stand for the structures. Values joined by “and” are separate entries in the source; they are usually repeats but may differ in a detail not shown here. Identical values can stand only once. Inconclusive results and toxic doses are left out. Residues, ends and D or L forms follow the SMILES beside them.

For the compound `CC(C)C(N)C(=O)NC(Cc1ccc(O)cc1)C(=O)NC(C(=O)O)C(C)C` (stereo not drawn) (H-Val-Tyr-Val-OH; configuration not given here), the T/C reads like this: (dose: 50.0 mg/kg/injection, schedule: Q01DX005 (ip), vehicle: saline) 89 % of control; (dose: 100.0 mg/kg/injection, schedule: Q01DX005 (ip), vehicle: saline) 97 % of control; (dose: 200.0 mg/kg/injection, schedule: Q01DX005 (ip), vehicle: saline) 92 % of control.

`O=C(CSc1cc(-c2ccc(Cl)cc2)s[s+]1)c1ccccc1`: the T/C under setting [1] is 101 % of control; the T/C under setting [2] is 109 % of control; the T/C under setting [3] is 114 % of control; the T/C under setting [4] is 113 % of control; the T/C under setting [5] is 114 % of control; the T/C under setting [6] is 113 % of control. Moreover, the T/C under setting [7] was 93 % of control.

Take `COc1ccc(N/N=C(\C)C2(O)Cc3c(O)c4c(c(O)c3C(OC3CC(N)C(O)C(C)O3)C2)C(=O)c2c(OC)cccc2C4=O)cc1` (centres undefined): the T/C is 123 % of control (dose: 1.73 mg/kg/injection, schedule: Q04DX003 (ip), vehicle: water) and 157 % of control (dose: 4.8 mg/kg/injection, schedule: Q04DX003 (ip), vehicle: water).

Take `CCS(=O)c1ncc2cnccn12` (centres undefined): the T/C is, setting by setting: (dose: 12.5 mg/kg/injection, schedule: Q04DX003 (ip), vehicle: water) 109 % of control; (dose: 25.0 mg/kg/injection, schedule: Q04DX003 (ip), vehicle: water) 92 % of control; (dose: 50.0 mg/kg/injection, schedule: Q01DX009 (ip), vehicle: water) 102 % of control; (dose: 50.0 mg/kg/injection, schedule: Q04DX003 (ip), vehicle: water) 100 % of control and 101 % of control; (dose: 100.0 mg/kg/injection, schedule: Q01DX009 (ip), vehicle: water) 94 % of control.

With `COc1cc(/C=N/NC(=O)C(=O)Nc2cccc(Cl)c2)cc(OC)c1O`, the T/C reads like this: under setting [8], 91 % of control; under setting [9], 100 % of control; (dose: 200.0 mg/kg/injection, schedule: Q01DX005 (ip), vehicle: saline with Tween-80) 100 % of control.

Regarding `CC(=O)OCC12CCC(C)=CC1O[C@H]1[C@@H](OC(C)=O)[C@H](OC(C)=O)[C@]2(C)[C@@]12CO2` (some centres undefined), the T/C (dose: 2.5 mg/kg/injection, schedule: Q04DX002 (ip), vehicle: saline + alcohol) was 96 % of control.

Turning to `O=[N+]([O-])c1ccc(-c2nc3ncccn3n2)cc1`, the T/C is 90 % of control under setting [3], 100 % of control under setting [5] and 100 % of control under setting [7].

Turning to `COC(=O)C1CN1C(c1ccccc1)(c1ccccc1)c1ccccc1` (centres undefined), the T/C is 95 % of control under setting [4] and 87 % of control under setting [6].

Regarding `O=C(O)C1C2CCCCC21` (centres undefined), the T/C is 109 % of control under setting [2]; 113 % of control (dose: 100.0 mg/kg/injection, schedule: Q01DX009 (ip), vehicle: saline); 100 % of control under setting [4]; 109 % of control (dose: 200.0 mg/kg/injection, schedule: Q01DX009 (ip), vehicle: saline); 95 % of control under setting [6]; 104 % of control (dose: 400.0 mg/kg/injection, schedule: Q01DX009 (ip), vehicle: saline).

In the case of `CC1CC2C(CC1=O)C(C)(C)CCC2(C)C` (centres undefined), the T/C is 109 % of control under setting [10]; 104 % of control (dose: 200.0 mg/kg/injection, schedule: Q01DX009 (ip), vehicle: Klucel (hydroxypropylcellulose) (HPC)); 104 % of control and 109 % of control (dose: 264.0 mg/kg/injection, schedule: Q04DX003 (ip), vehicle: Klucel (hydroxypropylcellulose) (HPC)); 86 % of control under setting [11]; 104 % of control (dose: 400.0 mg/kg/injection, schedule: Q04DX003 (ip), vehicle: Klucel (hydroxypropylcellulose) (HPC)).

Take `COc1cc2c(c(OC)c1OC)CCc1cnoc1-2`: the T/C is 107 % of control under setting [1], 95 % of control under setting [2], 97 % of control under setting [4] and 92 % of control under setting [6].

Turning to `O=C(CN1CCOCC1)Nc1nc(-c2ccc(Cl)cc2)cs1`, the T/C under setting [8] was 110 % of control and the T/C under setting [9] is 91 % of control.

For the compound `CSc1nc(NN(C)C)c2[nH]c(C)nc2n1`, the T/C by setting is: (dose: 0.78 mg/kg/injection, schedule: Q01DX009 (ip), vehicle: saline with Tween-80) 97 % of control; (dose: 1.56 mg/kg/injection, schedule: Q01DX009 (ip), vehicle: saline with Tween-80) 116 % of control; (dose: 3.13 mg/kg/injection, schedule: Q01DX009 (ip), vehicle: saline with Tween-80) 111 % of control; (dose: 6.25 mg/kg/injection, schedule: Q01DX009 (ip), vehicle: saline with Tween-80) 87 % of control.

`CSCCC(NC(=O)NC(CCSC)C(=O)Oc1ccc([N+](=O)[O-])cc1)C(=O)Oc1ccc([N+](=O)[O-])cc1` (centres undefined): the T/C under setting [1] was 87 % of control, the T/C under setting [2] was 96 % of control and the T/C under setting [4] was 112 % of control.

As for `COc1ccc2c(c1)N(C(=O)N(CCOC(=O)Nc1ccccc1)CCOC(=O)Nc1ccccc1)c1ccccc1S2`, the T/C is 95 % of control (dose: 25.0 mg/kg/injection, schedule: Q01DX009 (ip), vehicle: saline with Tween-80) and 91 % of control under setting [1].

As to `CCCCOn1nnc2cc(Cl)ccc21`, the T/C is 97 % of control under setting [1], 101 % of control under setting [2] and 117 % of control under setting [4].

In the case of `CC1(C)C2CCC1(C)C(Cl)C2` (centres undefined), the T/C by setting is: (dose: 100.0 mg/kg/injection, schedule: Q04DX002 (ip), vehicle: saline with Tween-80) 100 % of control; (dose: 200.0 mg/kg/injection, schedule: Q04DX002 (ip), vehicle: saline with Tween-80) 103 % of control; (dose: 400.0 mg/kg/injection, schedule: Q04DX002 (ip), vehicle: saline with Tween-80) 107 % of control.

`CC(=O)OCC(OC(C)=O)C(OC(C)=O)C(OC(C)=O)C(C#N)OC(C)=O` (centres undefined): the T/C runs as follows: (dose: 75.0 mg/kg/injection, schedule: Q01DX009 (ip), vehicle: saline with Tween-80) 100 % of control; under setting [2], 105 % of control; under setting [3], 100 % of control; (dose: 150.0 mg/kg/injection, schedule: Q01DX009 (ip), vehicle: saline with Tween-80) 100 % of control; under setting [4], 120 % of control; under setting [5], 100 % of control. Also, the T/C under setting [7] is 100 % of control.

Regarding `Cc1ccc(/C=C2\CC(C)(C)c3ccccc3C2=O)cc1`, the T/C reads like this: (dose: 65.0 mg/kg/injection, schedule: Q01DX009 (ip), vehicle: Klucel (hydroxypropylcellulose) (HPC)) 90 % of control; under setting [10], 87 % of control and 95 % of control; under setting [11], 100 % of control.

As to `O=C(O)c1cc(O)c(Br)c(O)c1`, the T/C was 109 % of control (dose: 100.0 mg/kg/injection, schedule: Q01DX001 (ip), vehicle: saline with Tween-80); 100 % of control (dose: 200.0 mg/kg/injection, schedule: Q01DX001 (ip), vehicle: saline with Tween-80); 104 % of control (dose: 400.0 mg/kg/injection, schedule: Q01DX001 (ip), vehicle: saline with Tween-80).

On to `CCOC(OC(C)=O)OC(C)=O`, for which the T/C reads like this: (dose: 50.0 mg/kg/injection, schedule: Q01DX001 (ip), vehicle: saline) 100 % of control; (dose: 100.0 mg/kg/injection, schedule: Q01DX001 (ip), vehicle: saline) 115 % of control; (dose: 200.0 mg/kg/injection, schedule: Q01DX001 (ip), vehicle: saline) 110 % of control.

Take `CC(=O)OC1(C)CC(C)(C)N=[N+]1[O-]` (centres undefined): the T/C is, setting by setting: (dose: 12.5 mg/kg/injection, schedule: Q01DX005 (ip), vehicle: other) 103 % of control; (dose: 25.0 mg/kg/injection, schedule: Q01DX005 (ip), vehicle: other) 103 % of control; (dose: 50.0 mg/kg/injection, schedule: Q01DX005 (ip), vehicle: other) 121 % of control; (dose: 100.0 mg/kg/injection, schedule: Q01DX005 (ip), vehicle: other) 103 % of control; (dose: 200.0 mg/kg/injection, schedule: Q01DX005 (ip), vehicle: other) 109 % of control.

`Cc1nc(N)c(Cl)nc1C`: the T/C reads like this: (dose: 50.0 mg/kg/injection, schedule: Q04DX003 (ip), vehicle: saline with Tween-80) 102 % of control and 104 % of control; under setting [3], 103 % of control; (dose: 150.0 mg/kg/injection, schedule: Q04DX003 (ip), vehicle: saline with Tween-80) 103 % of control; under setting [5], 95 % of control and 104 % of control; under setting [7], 104 % of control.
